Measurements reported in patent US5362412A, “Biodegradable bleach stabilizers for detergents” (priority 1991, dated 1994).

Key:
[1] = Perborate stabilization in the presence of Mn ions (peroxide remaining after hot storage, iodine/starch titration); settings: pH 10.1
Protocol: (§1) The hydrogen peroxide responsible for the bleaching action in sodium perborate based laundry detergents is decomposed catalytically by transition metal ions such as Mn^II and Cu^II. This degradation can be prevented by complexing the metal ions.
(§2) The peroxide stabilizing effect of stabilizers in accordance with the invention was tested by measuring the peroxide present before and after storage in a hot aqueous solution which contains copper or manganese ions.
(§3) A solution of 0.2 g (2×10^-3 mols) sodium perborate monohydrate; 10.0 ml of hardness standard (3:1 CaCl2 :MgCl2, 1×10^-6 mols total); 3.0 ml of metal standard (5.4×10^-8 mol Mn^II or 4.7×10^-8 mols Cu^II); and 2.0 ml stabilizer solution (4.2×10^-7 mols stabilizer) was diluted to 100 ml with distilled water. The pH was adjusted to 10.1 and the solution was stirred at 70° C. for 20 minutes. Ten ml aliquots of the solution were tested after 10 minutes by first neutralizing the solution with sulfuric acid and then titrating with iodine and starch.
(§4) The percentage of peroxide remaining after storage was determined using a starch/iodine titration procedure.

[2] = Perborate stabilization in the presence of Cu ions (peroxide remaining after hot storage, iodine/starch titration); settings: pH 10.1
Protocol: as §1, §2, §3, §4

[3] = Sodium perborate stabilization in wash liquors (bleaching of grape juice stained swatches); settings: 5.2×10^-5 mol/l stabilizer, sodium perborate-monohydrate 0.8 g/l, 50° C., 15 minutes, pH 10.3; for ΔE (brightness of the swatches): Fe^III, Cu^II, Mn^II; for % Stain Removal: in duplicate
Protocol: The efficiency of the bleaching action of a laundry detergent containing the stabilizers of the invention was measured by washing white poly-cotton fabric swatches previously stained with grape juice. The test was carried out using the following detergent formulation: […]
Sodium Dodecyl Benzene Sulfonate
Grape juice stained, poly-cotton fabric swatches purchased from Scientific Services, Oakland, N.J., were washed in a Tergitometer at 50° C. for 15 minutes in a wash solution containing sodium perborate-monohydrate 0.8 g/l; 4.0 g/l of the zeolite-based detergent as described above; 100 ppm Hardness (3:1 Ca:Mg); 2 ppm Fe^III; 1 ppm Cu^II; and 1 ppm Mn^II (from AA standards); and 5.2×10^-5 mol/l stabilizer. The pH of the wash solution was 10.3. The swatches were then rinsed for 5 minutes in 25° C. water and air dried.
The efficiency of the bleaching action was determined by measuring the brightness (ΔE) of the swatches and the percentage of soil removed from the swatches.
ΔE was calculated in accordance with ASTM E 308-66(81) standards, using the following formula: [formula] wherein L=Lightness 0 black, 100 white a=Redness if +, Greenness if -, Gray is 0 b=Yellow if +, Blue if -, Gray is 0
Δ measurements are before and after washing
Percent stain removal was calculated in duplicate in accordance with ASTM D3050-75 standards, using the following formula: [formula] where D=reflectance by detergent head with green filter (brightness).

[4] = conventional tests; cited from earlier work
[5] = 5.4×10^-8 mol Mn^II, 4.2×10^-7 mols stabilizer in 100 ml, 70° C.
[6] = 4.7×10^-8 mols Cu^II, 4.2×10^-7 mols stabilizer in 100 ml, 70° C.

O=C(O)CC(C(=O)O)N(CC(=O)O)CC(=O)O (stereo not drawn) [AspDA, Aspartic acidN,N-diacetic acid]
Stability in Presence of Mn^2 Ions, % Remaining [1, 5]: 25.6%
Stability in Presence of Cu^+2 Ions, % Remaining [2, 6]: 28.6%
ΔE (brightness of the swatches) [3]: 93.9
% Stain Removal [3]: 83.7%

O=C(O)CN(CC(=O)O)CC(O)CN(CC(=O)O)CC(=O)O [HPDTA, hydroxypropylenediaminetetraacetic acid]
biodegradability [4]: insufficiently biodegradable

CC(CN(CC(=O)O)CC(=O)O)N(CC(=O)O)CC(=O)O (stereo not drawn) [PDTA, propylenediaminetetraacetic acid]
biodegradability [4]: insufficiently biodegradable

O=C(O)CSC(CC(=O)O)C(=O)O (stereo not drawn) [CMMS, Carboxymethylmercaptosuccinic acid]
Stability in Presence of Mn^2 Ions, % Remaining [1, 5]: 54.5%
Stability in Presence of Cu^+2 Ions, % Remaining [2, 6]: 31.3%
ΔE (brightness of the swatches) [3]: 102.3
% Stain Removal [3]: 84.5%

O=C(O)CCN(CC(=O)O)CC(=O)O [BADA]
Stability in Presence of Mn^2 Ions, % Remaining [1, 5]: 45.0%
Stability in Presence of Cu^+2 Ions, % Remaining [2, 6]: 50.4%
ΔE (brightness of the swatches) [3]: 98.0
% Stain Removal [3]: 83.3%

O=C(O)CNC(CC(=O)O)C(=O)O (stereo not drawn) [AspMA, Aspartic acidN-monoacetic acid]
Stability in Presence of Mn^2 Ions, % Remaining [1]: 21.5%
Stability in Presence of Cu^+2 Ions, % Remaining [2]: 0.0%
ΔE (brightness of the swatches) [3]: 87.6
% Stain Removal [3]: 84.4%

O=C(O)CN(CCN(CC(=O)O)CC(=O)O)CC(=O)O [EDTA, Ethylenediaminetetraacetic acid, reference compound]
Stability in Presence of Mn^2 Ions, % Remaining [1, 5]: 87.5%
Stability in Presence of Cu^+2 Ions, % Remaining [2, 6]: 82.8%
ΔE (brightness of the swatches) [3]: 86.2
% Stain Removal [3]: 79.7%
biodegradability [4]: insufficiently biodegradable

O=C(O)CC(NC(CC(=O)O)C(=O)O)C(=O)O (stereo not drawn) [ISA, Iminodisuccinic acid]
Stability in Presence of Mn^2 Ions, % Remaining [1, 5]: 13.6%
Stability in Presence of Cu^+2 Ions, % Remaining [2, 6]: 79.0%
ΔE (brightness of the swatches) [3]: 92.7
% Stain Removal [3]: 81.4%
